Data: US8445451B2, “Macrolides and uses of macrolides” (Basilea Pharmaceutica AG, priority 2008, dated 2013)

Each compound was assayed on T1, human PDE4 (assay: IMAP FP in vitro enzymatic PDE4 inhibition assay). Details: PDE4 partially purified from human monocytic U-937 cells; 90 minutes at room temperature; fluorescence polarization.
T1 construct: PDE4 is partially purified from undifferentiated human monocytic cells (U-937) according to Thorpy et al. 1992 (J. Pharmacol. Exp. Ther. 263: 1195)
Type: biochemical
Experimental: PDE4 specifically hydrolyzes cAMP and releases the product AMP. The potency of PDE inhibition by said agents is determined in an in vitro enzymatic assay. The assay is commercially available (IMAP™ FP assay Molecular Devices Corp.(MDS)) and is optimized for the use of human PDE4. Fluorescently labeled cAMP is hydrolyzed by PDE4 and in a second step, binding of labeled product to a large binding partner allowed product detection by fluorescence polarization (FP) measurements.
PDE4 is partially purified from undifferentiated human monocytic cells (U-937) according to Thorpy et al. 1992 (J. Pharmacol. Exp. Ther. 263: 1195). […] In addition, PDE4 preparations are validated by inhibition studies with PDE4-specific and unspecific PDE inhibitors.
Stock solutions of test compounds are made in DMSO and diluted in assay buffer (10 mM Tris-HCl, 10 mM MgCl2, 0.1% BSA 0.05% NaN3, pH 7.2) to the desired concentrations. The solutions used in the assay contained test compound in assay buffer with 2% DMSO.
10 μl of substrate (at a concentration recommended by the manufacturer) are mixed with 5 μl of appropriately diluted PDE and 5 μl of test compound solution. 5 μl of reaction buffer with 2% DMSO are used for control reactions. […] After incubation for 90 minutes at room temperature, 60 μl of binding reagent are added as specified by the manufacturer. Binding is allowed to proceed for 30 minutes and fluorescence polarization is measured. Dose dependence of PDE inhibition is measured by assaying dilution series of test compounds in duplicates. IC50 values are determined from the measured activities by curve fitting.

Row | IC50 | SMILES
1 | 13.4 µM | CCC1OC(=O)C(C)C(OC2CC(C)(OC)C(O)C(C)O2)C(C)C(OC2OC(C)CC(N(C)C)C2O)C(C)(OC)CC(C)C(=O)C(C)C2C(SCCn3c(CCc4cccnc4)nc4c(N)ncnc43)C(=O)OC12C (stereo not drawn) [Example 1]
2 | 3.9 µM | CC[C@H]1OC(=O)[C@H](C)[C@@H](O[C@H]2C[C@@](C)(OC)[C@@H](O)[C@H](C)O2)[C@H](C)[C@@H](O[C@@H]2O[C@H](C)C[C@H](N(C)C)[C@H]2O)[C@](C)(OC)C[C@@H](C)C(=O)[C@H](C)[C@H]2[C@H](SCCn3c(Nc4cccnc4)nc4c(N)ncnc43)C(=O)O[C@@]21C [Example 2]
3 | 3.4 µM | CC[C@H]1OC(=O)[C@H](C)[C@@H](O[C@H]2C[C@@](C)(OC)[C@@H](O)[C@H](C)O2)[C@H](C)[C@@H](O[C@@H]2O[C@H](C)C[C@H](N(C)C)[C@H]2O)[C@](C)(OC)C[C@@H](C)C(=O)[C@H](C)[C@H]2[C@H](SCCN(C(=O)c3ccncc3)c3ccc(OC)c(OC4CCCC4)c3)C(=O)O[C@@]21C [Example 3]
4 | 0.28 µM | CC[C@H]1OC(=O)[C@H](C)[C@@H](O[C@H]2C[C@@](C)(OC)[C@@H](O)[C@H](C)O2)[C@H](C)[C@@H](O[C@@H]2O[C@H](C)C[C@H](N(C)C)[C@H]2O)[C@](C)(OC)C[C@@H](C)C(=O)[C@H](C)[C@H]2[C@H](SCCN(Cc3ccncc3)c3ccc(OC)c(OC4CCCC4)c3)C(=O)O[C@@]21C [Example 4]
5 | 0.85 µM | CC[C@H]1OC(=O)[C@H](C)[C@@H](O[C@H]2C[C@@](C)(OC)[C@@H](O)[C@H](C)O2)[C@H](C)[C@@H](O[C@@H]2O[C@H](C)C[C@H](N(C)C)[C@H]2O)[C@](C)(OC)C[C@@H](C)C(=O)[C@H](C)[C@H]2[C@H](SCCN(Cc3cccnc3)c3ccc(OC)c(OC4CCCC4)c3)C(=O)O[C@@]21C [Example 5]
6 | 0.37 µM | CC[C@H]1OC(=O)[C@H](C)[C@@H](O[C@H]2C[C@@](C)(OC)[C@@H](O)[C@H](C)O2)[C@H](C)[C@@H](O[C@@H]2O[C@H](C)C[C@H](N(C)C)[C@H]2O)[C@](C)(OC)C[C@@H](C)C(=O)[C@H](C)[C@H]2[C@H](SCCNc3c(C(=O)Nc4c(Cl)cncc4Cl)cnc4c3cnn4CC)C(=O)O[C@@]21C [Example 6]
7 | 7.6 µM | CC[C@H]1OC(=O)[C@H](C)[C@@H](O[C@H]2C[C@@](C)(OC)[C@@H](O)[C@H](C)O2)[C@H](C)[C@@H](O[C@@H]2O[C@H](C)C[C@H](N(C)C)[C@H]2O)[C@](C)(OC)C[C@@H](C)C(=O)[C@H](C)[C@H]2[C@H](SCCCc3c(C(=O)Nc4ccncc4)ccc(OC)c3OC)C(=O)O[C@@]21C [Example 7]
8 | 4.7 µM | CC[C@H]1OC(=O)[C@H](C)[C@@H](O[C@H]2C[C@@](C)(OC)[C@@H](O)[C@H](C)O2)[C@H](C)[C@@H](O[C@@H]2O[C@H](C)C[C@H](N(C)C)[C@H]2O)[C@](C)(OC)C[C@@H](C)C(=O)[C@H](C)[C@H]2[C@H](SCCCn3cnc4c(N)ncc(C(=O)Nc5ccncc5)c43)C(=O)O[C@@]21C [Example 8]
9 | 24.2 µM | CC[C@H]1OC(=O)[C@H](C)[C@@H](O[C@H]2C[C@@](C)(OC)[C@@H](O)[C@H](C)O2)[C@H](C)[C@@H](O[C@@H]2O[C@H](C)C[C@H](N(C)C)[C@H]2O)[C@](C)(OC)C[C@@H](C)C(=O)[C@H](C)[C@H]2[C@H](SCCCn3cnc4c(N)ncc(C(=O)NCC(=O)OC)c43)C(=O)O[C@@]21C [Example 9]
10 | 1 µM | CC[C@H]1OC(=O)[C@H](C)[C@@H](O[C@H]2C[C@@](C)(OC)[C@@H](O)[C@H](C)O2)[C@H](C)[C@@H](O[C@@H]2O[C@H](C)C[C@H](N(C)C)[C@H]2O)[C@](C)(OC)C[C@@H](C)C(=O)[C@H](C)[C@H]2[C@H](SCCn3cnc4c(N)ncc(C(=O)Nc5ccncc5)c43)C(=O)O[C@@]21C [Example 10]
11 | 0.008 µM | CC[C@H]1OC(=O)[C@H](C)[C@@H](O[C@H]2C[C@@](C)(OC)[C@@H](O)[C@H](C)O2)[C@H](C)[C@@H](O[C@@H]2O[C@H](C)C[C@H](N(C)C)[C@H]2O)[C@](C)(OC)C[C@@H](C)C(=O)[C@H](C)[C@H]2[C@H](SCCn3cnc4c(N)ncc(C(=O)Nc5c(Cl)cncc5Cl)c43)C(=O)O[C@@]21C [Example 11]
12 | 3.8 µM | CC[C@H]1OC(=O)[C@H](C)[C@@H](O[C@H]2C[C@@](C)(OC)[C@@H](O)[C@H](C)O2)[C@H](C)[C@@H](O[C@@H]2O[C@H](C)C[C@H](N(C)C)[C@H]2O)[C@](C)(OC)C[C@@H](C)C(=O)[C@H](C)[C@H]2[C@H](SCCn3cnc4c(N)nc(NCc5cccnc5)nc43)C(=O)O[C@@]21C [Example 12]
13 | 2.6 µM | CC[C@H]1OC(=O)[C@H](C)[C@@H](O[C@H]2C[C@@](C)(OC)[C@@H](O)[C@H](C)O2)[C@H](C)[C@@H](O[C@@H]2O[C@H](C)C[C@H](N(C)C)[C@H]2O)[C@](C)(OC)C[C@@H](C)C(=O)[C@H](C)[C@H]2[C@H](SCCn3cnc4c(N)nc(NCc5ccncc5)nc43)C(=O)O[C@@]21C [Example 13]
14 | 0.0049 µM | CC[C@H]1OC(=O)[C@H](C)[C@@H](O)[C@H](C)[C@@H](O[C@@H]2O[C@H](C)C[C@H](N(C)C)[C@H]2O)[C@](C)(OC)C[C@@H](C)C(=O)[C@H](C)[C@H]2[C@H](SCCn3cnc4c(N)ncc(C(=O)Nc5c(Cl)cncc5Cl)c43)C(=O)O[C@@]21C [Example 14]
15 | 0.48 µM | CC[C@H]1OC(=O)[C@H](C)C(=O)[C@H](C)[C@@H](O[C@@H]2O[C@H](C)C[C@H](N(C)C)[C@H]2O)[C@](C)(OC)C[C@@H](C)C(=O)[C@H](C)[C@H]2[C@H](SCCN(Cc3c(Cl)cncc3Cl)c3ccc(OC)c(OC4CCCC4)c3)C(=O)O[C@@]21C [Example 15]
16 | 0.11 µM | CC[C@H]1OC(=O)[C@H](C)[C@@H](O)[C@H](C)[C@@H](O[C@@H]2O[C@H](C)C[C@H](N(C)C)[C@H]2O)[C@](C)(OC)C[C@@H](C)C(=O)[C@H](C)[C@H]2[C@H](SCCNc3c(C(=O)Nc4c(Cl)cncc4Cl)cnc4c3cnn4CC)C(=O)O[C@@]21C [Example 16]
17 | 3.6 µM | CSCCn1cnc2c(N)ncc(C(=O)Nc3c(Cl)cncc3Cl)c21 [reference compound]

Same assay, conditions: up to a concentration of 50 μM in the assay used in the examples

Row | SMILES | PDE4-inhibiting activity
18 | CC[C@H]1OC(=O)[C@H](C)[C@@H](O[C@H]2C[C@@](C)(OC)[C@@H](O)[C@H](C)O2)[C@H](C)[C@@H](O[C@@H]2O[C@H](C)C[C@H](N(C)C)[C@H]2O)[C@](C)(OC)C[C@@H](C)C(=O)[C@H](C)[C@H]2[C@H](SC)C(=O)O[C@@]21C [reference compound] | does not show any PDE4-inhibiting activity
